In patent publication US8802853B2, “Arylalkenyl and arylalkynyl substituted imidazoquinolines” (3M Innovative Properties Company, priority 2003, dated 2014):
Where a name gives a salt, the structure may show the parent alone.

Structure (SMILES)	melting point
CCc1nc2c(N)nc3ccccc3c2n1CC#Cc1cccs1 (as salt: hydroiodid) [Example 2, 2-Ethyl-1-[3-(thien-2-yl)-2-propynyl]-1H-imidazo[4,5-c]quinolin-4-amine]	185 to 205 °C
CCc1nc2c(N)nc3ccccc3c2n1CC#Cc1cnccn1 (as salt: hydroiodid) [Example 5, 2-Ethyl-1-[3-(pyrazin-2-yl)-2-propynyl]-1H-imidazo[4,5-c]quinolin-4-amine]	180 to 225 °C (dec.)
CCc1nc2c(N)nc3ccccc3c2n1CC#Cc1cccc(C(F)(F)F)c1 [Example 8, 2-Ethyl-1-[3-(3-trifluoromethylphenyl)-2-propynyl]-1H-imidazo[4,5-c]quinolin-4-amine]	202.5 to 203.5 °C
CCc1nc2c(N)nc3ccccc3c2n1CC#Cc1ccccc1C(F)(F)F [Example 9, 2-Ethyl-1-[3-(2-trifluoromethylphenyl)-2-propynyl]-1H-imidazo[4,5-c]quinolin-4-amine]	234 to 235 °C (dec.)
CCc1nc2c(N)nc3ccccc3c2n1CC#Cc1cccc([N+](=O)[O-])c1 [Example 11, 2-Ethyl-1-[3-(3-nitrophenyl)-2-propynyl]-1H-imidazo[4,5-c]quinolin-4-amine]	224 to 243 °C
CCc1nc2c(N)nc3ccccc3c2n1CCCC#Cc1cccs1 [Example 12, 2-Ethyl-1-[5-(thien-2-yl)-4-pentynyl]-1H-imidazo[4,5-c]quinolin-4-amine]	175 to 190 °C (dec.)
CCc1nc2c(N)nc3ccccc3c2n1CCCC#Cc1cccnc1 [Example 13]	188 to 192 °C
CCc1nc2c(N)nc3ccccc3c2n1CCCC#Cc1ccccc1 [Example 15, 2-Ethyl-1-(5-phenyl-4-pentynyl)-1H-imidazo[4,5-c]quinolin-4-amine]	199 to 202 °C
CCc1nc2c(N)nc3ccccc3c2n1CCCC#Cc1cccc(C(F)(F)F)c1 [Example 16, 2-Ethyl-1-[5-(3-trifluoromethylphenyl)-4-pentynyl]-1H-imidazo[4,5-c]quinolin-4-amine]	178 to 181 °C
CCc1nc2c(N)nc3ccccc3c2n1CCC/C=C/c1cccnc1 [Example 17, (E)-2-Ethyl-1-[5-(pyridin-3-yl)-4-pentenyl]-1H-imidazo[4,5-c]quinolin-4-amine]	188 to 190 °C
CCc1nc2c(N)nc3ccccc3c2n1CCC/C=C/c1ccc(OC)cc1 [Example 18, (E)-2-Ethyl-1-[5-(4-methoxyphenyl)-4-pentenyl]-1H-imidazo[4,5-c]quinolin-4-amine]	179 to 180 °C

Now from value to molecule:

melting point	Structure (SMILES)
249 to 251 °C (dec.)	CCc1nc2c(N)nc3ccccc3c2n1CC#Cc1cccnc1 (as salt: hydroiodid) [Example 1, 2-Ethyl-1-[3-(pyridin-3-yl)-2-propynyl]-1H-imidazo[4,5-c]quinolin-4-amine]
200 to 212 °C (dec.)	CCc1nc2c(N)nc3ccccc3c2n1CC#Cc1ccccc1 (as salt: hydroiodid) [Example 4, 2-Ethyl-1-(3-phenyl-2-propynyl)-1H-imidazo[4,5-c]quinolin-4-amine]
230 °C	CCc1nc2c(N)nc3ccccc3c2n1CCCC#Cc1ccc(OC)cc1 (as salt: hydroiodid) [Example 14, 2-Ethyl-1-[5-(4-methoxyphenyl)-4-pentynyl]-1H-imidazo[4,5-c]quinolin-4-amine]
221 to 222 °C (dec.)	CCOC(=O)c1ccc(C#CCn2c(CC)nc3c(N)nc4ccccc4c32)cc1 [Example 6, Ethyl 4-[3-(4-Amino-2-ethyl-1H-imidazo[4,5-c]quinolin-1-yl)-1-propynyl]benzoate]
179 to 181 °C	CCc1nc2c(N)nc3ccccc3c2n1CC#Cc1ccc(OC)cc1 [Example 7, 2-Ethyl-1-[3-(4-methoxyphenyl)-2-propynyl]-1H-imidazo[4,5-c]quinolin-4-amine]
190 to 206 °C	CCc1nc2c(N)nc3ccccc3c2n1CC#Cc1ccc([N+](=O)[O-])cc1 [Example 10, 2-Ethyl-1-[3-(4-nitrophenyl)-2-propynyl]-1H-imidazo[4,5-c]quinolin-4-amine]
